Reference: ChEMBL document CHEMBL3784979, “Design, synthesis and biological evaluation of novel benzimidazole-2-substituted phenyl or pyridine propyl ketene derivatives as antitumour agents” (Eur J Med Chem, 2016)
pIC50: −log10 of the molar value. The source made the active and inactive calls. The calls are words filed in the database; no cut-off is given here.

Assays:
[1] = Antiproliferative activity against human HCT116 cells after 48 hrs by MTT assay; type: functional, cell-based; conditions: HCT-116, 48 h
[2] = test system: HepG2; assay: Antiproliferative activity against human HepG2 cells after 48 hrs by MTT assay; type: functional, cell-based; conditions: HepG2, 48 h
[3] = test system: MCF7; assay: Antiproliferative activity against human MCF7 cells after 48 hrs by MTT assay; type: functional, cell-based; conditions: MCF7, 48 h
[4] = Antiproliferative activity against p53 deficient human HCT116 cells after 48 hrs by MTT assay; type: functional, cell-based; conditions: HCT-116, 48 h
[5] = Cell cycle arrest in human HCT116 cells assessed as accumulation at G1 phase at 0.58 uM after 72 hrs by propidium iodide staining based flow cytometry (reference value: 31.72 +/- 2.21%); type: functional; conditions: HCT-116
[6] = Cell cycle arrest in human HCT116 cells assessed as accumulation at S phase at 0.58 uM after 72 hrs by propidium iodide staining based flow cytometry (reference value: 40.55 +/- 1.36%); type: functional; conditions: HCT-116
[7] = Cell cycle arrest in human HCT116 cells assessed as accumulation at G2 phase at 0.58 uM after 72 hrs by propidium iodide staining based flow cytometry (reference value: 27.73 +/- 3.56%); type: functional; conditions: HCT-116
[8] = Toxicity in ip dosed BALB/c mouse by bliss test; type: organism-based; conditions: in vivo
[9] = test system: HCT-116; assay: Antitumor activity against human HCT116 cells xenografted in ip dosed BALB/c mouse assessed as tumor growth inhibition administered twice weekly for 4 weeks measured 24 hrs post last dose; type: functional, organism-based
[10] = test system: Mus musculus; assay: Toxicity in BALB/c mouse assessed as change in body weight at 100 to 200 mg/kg, ip twice weekly for 4 weeks measured 24 hrs post last dose; type: organism-based; conditions: in vivo
[11] = target: T1, Tumour suppressor p53/oncoprotein Mdm2 (Homo sapiens) (UniProt P04637+Q00987); assay: Inhibition of MDM2/P53 protein interaction in human HCT116 cells at 0.5 to 5 uM after 24 hrs by immunoprecipitation analysis; type: cell-based; conditions: HCT-116
T1 sequence (P04637 whole entry, looked up): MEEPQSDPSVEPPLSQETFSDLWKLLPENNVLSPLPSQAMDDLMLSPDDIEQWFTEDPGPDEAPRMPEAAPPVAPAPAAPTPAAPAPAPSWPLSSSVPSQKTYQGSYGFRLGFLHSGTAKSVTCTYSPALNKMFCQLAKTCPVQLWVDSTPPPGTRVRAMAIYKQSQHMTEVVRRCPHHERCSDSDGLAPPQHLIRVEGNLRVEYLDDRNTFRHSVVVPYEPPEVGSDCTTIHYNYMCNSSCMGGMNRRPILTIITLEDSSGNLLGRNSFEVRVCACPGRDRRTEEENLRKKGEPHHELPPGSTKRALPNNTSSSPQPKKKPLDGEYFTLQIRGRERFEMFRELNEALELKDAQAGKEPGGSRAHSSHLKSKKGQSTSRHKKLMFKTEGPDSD
T1 sequence (Q00987 whole entry, looked up): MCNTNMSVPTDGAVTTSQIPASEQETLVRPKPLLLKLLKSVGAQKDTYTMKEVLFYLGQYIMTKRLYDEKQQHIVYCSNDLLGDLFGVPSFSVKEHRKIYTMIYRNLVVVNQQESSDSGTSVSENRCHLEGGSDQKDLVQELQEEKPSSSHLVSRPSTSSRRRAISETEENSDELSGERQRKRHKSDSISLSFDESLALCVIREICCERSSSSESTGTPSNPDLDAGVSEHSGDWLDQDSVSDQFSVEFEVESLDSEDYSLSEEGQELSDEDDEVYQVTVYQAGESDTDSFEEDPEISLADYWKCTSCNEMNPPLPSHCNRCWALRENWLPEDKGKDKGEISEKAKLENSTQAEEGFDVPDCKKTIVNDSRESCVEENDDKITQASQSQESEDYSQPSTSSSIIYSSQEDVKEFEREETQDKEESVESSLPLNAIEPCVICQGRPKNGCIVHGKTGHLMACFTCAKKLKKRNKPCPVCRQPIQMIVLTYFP

[12] = test system: HCT-116; assay: Potency index, ratio of 5-fluorouracil IC50 to compound IC50 for human HCT116 cells; type: functional
[13] = Cell cycle arrest in human HCT116 cells assessed as accumulation at G1 phase at 0.06 uM after 72 hrs by propidium iodide staining based flow cytometry (reference value: 31.72 +/- 2.21%); type: functional; conditions: HCT-116
[14] = Cell cycle arrest in human HCT116 cells assessed as accumulation at S phase at 0.06 uM after 72 hrs by propidium iodide staining based flow cytometry (reference value: 40.55 +/- 1.36%); type: functional; conditions: HCT-116
[15] = Cell cycle arrest in human HCT116 cells assessed as accumulation at G2 phase at 0.06 uM after 72 hrs by propidium iodide staining based flow cytometry (reference value: 27.73 +/- 3.56%); type: functional; conditions: HCT-116
[16] = target: T1, Tumour suppressor p53/oncoprotein Mdm2 (Homo sapiens); assay: Inhibition of MDM2/P53 protein interaction in human HCT116 cells at 0.1 to 1 uM after 24 hrs by immunoprecipitation analysis; type: cell-based; conditions: HCT-116
[17] = Cell cycle arrest in human HCT116 cells assessed as accumulation at G1 phase at 0.04 uM after 72 hrs by propidium iodide staining based flow cytometry (reference value: 31.72 +/- 2.21%); type: functional; conditions: HCT-116
[18] = Cell cycle arrest in human HCT116 cells assessed as accumulation at S phase at 0.04 uM after 72 hrs by propidium iodide staining based flow cytometry (reference value: 40.55 +/- 1.36%); type: functional; conditions: HCT-116
[19] = Cell cycle arrest in human HCT116 cells assessed as accumulation at G2 phase at 0.04 uM after 72 hrs by propidium iodide staining based flow cytometry (reference value: 27.73 +/- 3.56%); type: functional; conditions: HCT-116
[20] = Antitumor activity against human HCT116 cells xenografted in BALB/c mouse assessed as tumor growth inhibition at 200 mg/kg, ip twice weekly for 4 weeks measured 24 hrs post last dose relative to control; type: functional; conditions: HCT-116, ip, read-out: TGI
[21] = Cell cycle arrest in human HCT116 cells assessed as accumulation at G1 phase after 72 hrs by propidium iodide staining based flow cytometry (reference value: 31.72 +/- 2.21%); type: functional; conditions: HCT-116
[22] = Cell cycle arrest in human HCT116 cells assessed as accumulation at S phase after 72 hrs by propidium iodide staining based flow cytometry (reference value: 40.55 +/- 1.36%); type: functional; conditions: HCT-116
[23] = Cell cycle arrest in human HCT116 cells assessed as accumulation at G2 phase after 72 hrs by propidium iodide staining based flow cytometry (reference value: 27.73 +/- 3.56%); type: functional; conditions: HCT-116
[24] = Antitumor activity against human HCT116 cells xenografted in BALB/c mouse assessed as tumor growth inhibition at 12.5 mg/kg, ip twice weekly for 4 weeks measured 24 hrs post last dose relative to control; type: functional; conditions: HCT-116, ip, read-out: TGI
[25] = test system: Mus musculus; assay: Toxicity in BALB/c mouse assessed as reduction in body weight at 12.5 mg/kg, ip twice weekly for 4 weeks measured 24 hrs post last dose; type: organism-based; conditions: in vivo

CC(=O)O[C@H]1C(=O)[C@@]2(C)[C@H]([C@H](OC(=O)c3ccccc3)[C@]3(O)C[C@H](OC(=O)[C@H](O)[C@@H](NC(=O)c4ccccc4)c4ccccc4)C(C)=C1C3(C)C)[C@]1(OC(C)=O)CO[C@@H]1C[C@@H]2O [PACLITAXEL] showed a pIC50 [1] of 7.17 and a pIC50 [2] of 7.66.

In the case of COc1ccc(/C=C/C(=O)c2nc3ccccc3[nH]2)cc1, the pIC50 [1] was 4.88, the pIC50 [3] was < 4.00 and the pIC50 [2] was 5.13.

In the case of O=C(/C=C/c1cccc(Cl)c1)c1nc2ccccc2o1, the pIC50 [1] was < 4.00, the pIC50 [3] was < 4.00 and the pIC50 [2] was < 4.00.

In the case of O=C(CCc1ccccn1)c1nc2ccccc2[nH]1, the pIC50 [1] was < 4.00, the pIC50 [3] was < 4.00 and the pIC50 [2] was < 4.00.

COc1cccc(/C=C/C(=O)c2nc3ccccc3[nH]2)c1 showed a pIC50 [1] of 6.24, a pIC50 [3] of 4.66 and a pIC50 [2] of 5.25. For the same compound, the pIC50 [4] was 5.32, the Activity [5] was 60.5% and the Activity [6] was 19%. For the same compound, the Activity [7] was 20.5%, the LD50 [8] was 1220 mg/kg and the TGI [9] was “Dose-dependent effect”. For the same compound, the Activity [10] was “Non-toxic” and the inhibition [11] was “Active”.

For O=C(/C=C/c1cccc(Cl)c1)c1nc2ccccc2s1, the pIC50 [1] was < 4.00, the pIC50 [3] was < 4.00 and the pIC50 [2] was < 4.00.

O=C(/C=C/c1ccccc1Br)c1nc2ccccc2[nH]1 gave a pIC50 [1] of 4.79, a pIC50 [3] of 4.29 and a pIC50 [2] of 4.54.

With COc1cccc(/C=C/C(O)c2nc3ccccc3[nH]2)c1 (stereo not drawn) the pIC50 [1] was < 4.00, the pIC50 [3] was < 4.00 and the pIC50 [2] was < 4.00.

For COc1cccc(/C=C/C(=O)c2nc3ccccc3s2)c1, the pIC50 [1] was < 4.00, the pIC50 [3] was < 4.00 and the pIC50 [2] was < 4.00.

With O=C(/C=C/c1ccc(Cl)cc1)c1nc2ccccc2[nH]1 the pIC50 [1] was 5.17, the pIC50 [3] was 4.61 and the pIC50 [2] was 4.90.

For O=C(/C=C/c1ccccn1)c1nc2ccccc2s1, the pIC50 [1] was < 4.00, the pIC50 [3] was < 4.00 and the pIC50 [2] was < 4.00.

COc1ccccc1/C=C/C(=O)c1nc2ccccc2[nH]1 gave a pIC50 [1] of 5.32, a pIC50 [3] of 4.38 and a pIC50 [2] of 5.10.

With O=C(/C=C/c1ccccn1)c1nc2ccccc2o1 the pIC50 [1] was < 4.00, the pIC50 [3] was < 4.00 and the pIC50 [2] was < 4.00.

With COc1cccc(/C=C/C(=O)c2nc3ccccc3o2)c1 the pIC50 [1] was < 4.00, the pIC50 [3] was < 4.00 and the pIC50 [2] was < 4.00.

Compound O=c1[nH]cc(F)c(=O)[nH]1 [FLUOROURACIL] has a pIC50 [1] of 4.24, a pIC50 [3] of 3.65 and a pIC50 [2] of 3.76.

For OC(/C=C/c1ccccn1)c1nc2ccccc2[nH]1 (stereo not drawn), the pIC50 [1] was < 4.00, the pIC50 [3] was < 4.00 and the pIC50 [2] was < 4.30.

With O=C(/C=C/c1ccc(Br)cc1)c1nc2ccccc2[nH]1 the pIC50 [1] was 4.71, the pIC50 [3] was 4.28 and the pIC50 [2] was 4.96.

Cc1ccccc1/C=C/C(=O)c1nc2ccccc2[nH]1 showed a pIC50 [1] of 6.07, a pIC50 [3] of 4.20 and a pIC50 [2] of 5.17. The pIC50 [4] was 5.36.

With O=C(CCc1cccc(Cl)c1)c1nc2ccccc2[nH]1 the pIC50 [1] was < 4.00, the pIC50 [3] was < 4.00 and the pIC50 [2] was < 4.00.

Work on O=C(/C=C/c1ccccc1)c1nc2ccccc2[nH]1 yielded a pIC50 [1] of 6.70, a pIC50 [3] of 4.40 and a pIC50 [2] of 5.20. For the same compound, the pIC50 [4] was 5.68.

O=C(/C=C/c1ccncc1)c1nc2ccccc2[nH]1 gave a pIC50 [1] of 6.15, a pIC50 [3] of 4.68 and a pIC50 [2] of 5.16. For the same compound, the pIC50 [4] was 5.25.

Work on O=C(/C=C/c1ccccn1)c1nc2ccccc2[nH]1 yielded a pIC50 [1] of 7.22, a pIC50 [3] of 5.44 and a pIC50 [2] of 6.47. The “Ratio IC50” value [12] was 950, the pIC50 [4] was 5.84 and the Activity [13] was 64.5%. The Activity [14] was 18.9%, the Activity [15] was 16.6% and the inhibition [16] was “Active”. The LD50 [8] was 634 mg/kg, the TGI [9] was “Dose-dependent effect” and the Activity [10] was “Non-toxic”.

O=C(/C=C/c1cccc(Br)c1)c1nc2ccccc2[nH]1 gave a pIC50 [1] of 6.10, a pIC50 [3] of 4.71 and a pIC50 [2] of 5.80. It also gave a pIC50 [4] of 5.53.

In the case of O=C(/C=C/c1cccnc1)c1nc2ccccc2[nH]1, the pIC50 [1] was 4.81, the pIC50 [3] was 4.66 and the pIC50 [2] was 5.07.

With OC(/C=C/c1cccc(Cl)c1)c1nc2ccccc2[nH]1 (stereo not drawn) the pIC50 [1] was < 4.00, the pIC50 [3] was < 4.00 and the pIC50 [2] was < 4.00.

O=C(/C=C/c1cccc(Cl)c1)c1nc2ccccc2[nH]1 showed a pIC50 [1] of 7.52, a pIC50 [3] of 5.01 and a pIC50 [2] of 6.12. The “Ratio IC50” value [12] was 950, the pIC50 [4] was 5.71 and the Activity [17] was 65%. The Activity [18] was 17.2%, the Activity [19] was 17.8% and the inhibition [16] was “Active”. The LD50 [8] was 692 mg/kg, the inhibition in vivo at 200 mg/kg [20] was 74.6% and the TGI [9] was “Dose-dependent effect”. For the same compound, the Activity [10] was “Non-toxic”.

In the case of COc1ccc(C2=N[C@H](c3ccc(Cl)cc3)[C@H](c3ccc(Cl)cc3)N2C(=O)N2CCNC(=O)C2)c(OC(C)C)c1, the Activity [21] was 62.5%, the Activity [22] was 24.8% and the Activity [23] was 12.7%.

In the case of CCc1c2c(nc3ccc(OC(=O)N4CCC(N5CCCCC5)CC4)cc13)-c1cc3c(c(=O)n1C2)COC(=O)[C@]3(O)CC [IRINOTECAN], the inhibition in vivo at 12.5 mg/kg [24] was 70.2% and the Activity [25] was 3.66 g.
